# Patent US20150133509A1, “TREE TRUNK INJECTION” (NIPPON SODA CO., LTD., priority 2012, published 2015)
# Like-named read-outs stand apart in the source and are kept apart here.
# Key:
# Raffaelea quercivora = assay: Flat plate antifungal test (PDA medium); type: cell-based; conditions: for inhibition at 1 ppm / inhibition at 10 ppm / inhibition at 100 ppm / inhibition at 0.01 ppm / inhibition at 0.1 ppm: Dryadomyces quercivorus, read-out: Inhibition rate of hyphal elongation; for antifungal effect on Raffaelea quercivora at low concentrations: concentrations of less than about 1 ppm; for inhibition at 0.01 ppm: 0.01 ppm in PDA medium
# Experimental: The tree trunk injection agents was obtained by dissolving triflumizole to be each concentration of 100 ppm 10 ppm, 1 ppm, 0.1 pmm, and 0.01 ppm in solution for PDA (potato dextrose agar) medium. These tree trunk injection agents were poured into Petri dishes with inner diameter of 9 cm, and allowed to solidify to produce plate mediums with diameter of 9 cm. In this medium, the flora disk of Raffaelea quercivora was plated. This was cultured statically for 3 days to 4 days at 25° C. Then, the diameter of the flora was measured, and the inhibition rate of hyphal elongation was calculated. The inhibition rate of hyphal elongation (%) was calculated based on the formula: ((flora diameter of untreated group−flora diameter of medium containing triflumizole)/flora diameter of untreated group)×100.
# [1] = system: fungi which cause Laurel wilt; conditions: Non-Patent Document 1; cited from earlier work
# [2] = 1 ppm in PDA medium, 3 to 4 days at 25° C.
# [3] = 10 ppm in PDA medium, 3 to 4 days at 25° C.
# [4] = 100 ppm in PDA medium, 3 to 4 days at 25° C.
# [5] = 0.1 ppm in PDA medium, 3 to 4 days at 25° C.
SMILES,inhibition at 1 ppm (Raffaelea quercivora; [2]) [%],inhibition at 10 ppm (Raffaelea quercivora; [3]) [%],inhibition at 100 ppm (Raffaelea quercivora; [4]) [%],antifungal effect on Raffaelea quercivora at low concentrations (Raffaelea quercivora),inhibition at 0.01 ppm (Raffaelea quercivora; 3 to 4 days at 25° C.) [%],inhibition at 0.1 ppm (Raffaelea quercivora; [5]) [%],effectiveness for fungi which cause Laurel wilt [1],inhibition at 0.1 ppm (Raffaelea quercivora) [%],inhibition at 1 ppm (Raffaelea quercivora) [%],inhibition at 10 ppm (Raffaelea quercivora) [%],inhibition at 100 ppm (Raffaelea quercivora) [%]
CCCCC(O)(Cn1cncn1)c1ccc(Cl)cc1Cl (stereo not shown) [hexaconazole],33,98,100,not exhibited any antifungal effect,,,,,,,
CC1(C)CCC(Cc2ccc(Cl)cc2)C1(O)Cn1cncn1 (stereo not shown) [metconazole],97,98,100,,35,59,,,,,
CCCCC(C#N)(Cn1cncn1)c1ccc(Cl)cc1 (stereo not shown) [myclobutanil],44,96,100,not exhibited any antifungal effect,,,,,,,
CCCC1COC(Cn2cncn2)(c2ccc(Cl)cc2Cl)O1 (stereo not shown) [propiconazole],,,,,,,highly effective,,,,
FC(F)C(F)(F)OCC(Cn1cncn1)c1ccc(Cl)cc1Cl (stereo not shown) [tetraconazole],60,100,100,not exhibited any antifungal effect,,,,,,,
CCCOC/C(=N\c1ccc(Cl)cc1C(F)(F)F)n1ccnc1 [triflumizole],96,100,100,,25,95,,,,,
O=CNC(N1CCN(C(NC=O)C(Cl)(Cl)Cl)CC1)C(Cl)(Cl)Cl (stereo not shown) [triforine],,,,not exhibited any antifungal effect,,,,0,0,26,100
